In one test the test system is AvBD9. Kind of test: RT-qPCR of AvBD9 in peripheral blood mononuclear cells (PBMCs). The following applies: chicken PBMCs, 24 h (FIG. 6, Panel F). The class given is cell-based. The method, then:
Isolation, culture, and stimulation of chicken peripheral blood mononuclear cells (PBMCs). Chicken PBMCs were isolated from EDTA-anticoagulated venous blood collected from 2- to 4-week-old broiler chickens through gradient centrifugation using Histopaque 1077 (Millipore Sigma) as previously described (22, 26). PBMCs were seeded at 3×10^7 cells/well in 6-well cell culture plates and stimulated with different concentrations of an HMTi or DNMTi with or without 1 mM butyrate for 24 h, followed by RNA isolation and HDP gene expression analysis as described below.
(§1) Total RNA extraction and gene expression analysis. Total RNA was extracted using RNAzol (Molecular Biology Research Center, Cincinnati, OH) according to the manufacturer's protocol. Gene expression was performed using reverse transcription-quantitative PCR (RT-qPCR) as previously described (27-29). […] The cDNA was then diluted 10-fold with RNase-free water prior to real-time PCR using QuantiTect SYBR® Green PCR Kit (Qiagen, Valencia, CA) in 10-μl reactions using primers specific for HDP, barrier function, and inflammatory cytokine genes as described (27, 29, 30). […] The fold changes in gene expression in the cells treated with individual compounds or in combinations were calculated relative to the cells treated with an equal volume of RPMI 1640 or DMSO using the ΔΔCt method (31).

The test system of a further test is IL-8. Kind of test: RT-qPCR of IL-8 in HTC cells with or without LPS. The class given is cell-based, chicken. As for the experimental part:
(§2) Culture and stimulation of macrophages. Two different chicken macrophage cell lines, HTC (24) and HD11 (25), were kindly provided by Dr. Narayan C. Rath and Dr. Hyun Lillehoj of USDA-ARS and maintained in RPMI 1640 containing 10% heat-inactivated FBS, 100 U/ml penicillin, and 100 μg/ml streptomycin and subcultured every 3-4 days. After overnight seeding at 1.5×10^6 cells/well in 6-well cell culture plates, cells were treated with different concentrations of each compound for 24 h or with the indicated concentration of each compound for various lengths of time for dose-response and time-course experiments, respectively. To study the synergy between HMTi/DNMTi and HDACi, different concentrations of an HMTi or DNMTi were added to the cells in the presence or absence of an HDACi for 24 h, followed by RNA isolation and HDP gene expression analysis as described below. HTC cells were also stimulated with butyrate, BIX01294, or their combination for 24 h, followed by 3-h stimulation with 10 ng/ml LPS and subsequent expression analysis.
(§3) Total RNA extraction and gene expression analysis. Total RNA was extracted using RNAzol (Molecular Biology Research Center, Cincinnati, OH) according to the manufacturer's protocol. Gene expression was performed using reverse transcription-quantitative PCR (RT-qPCR) as previously described (27-29). Reverse transcription was performed with 300 ng of total RNA and Maxima® First Strand cDNA Synthesis Kit (ThermoFisher Scientific, Pittsburgh, PA). The cDNA was then diluted 10-fold with RNase-free water prior to real-time PCR using QuantiTect SYBR® Green PCR Kit (Qiagen, Valencia, CA) in 10-μl reactions using primers specific for HDP, barrier function, and inflammatory cytokine genes as described (27, 29, 30). PCR was run in CFX Connect Real-Time PCR System (Bio-Rad, Hercules, CA) using the following program: 95° C. for 10 min, followed by 40 cycles of 94° C. for 15 sec, 55° C. for 20 sec, and 72° C. for 30 sec. The specificity of PCR reactions was confirmed by the melting curve analysis. The glyceraldehyde-3-phosphate dehydrogenase (GAPDH) gene was used as the reference for data normalization. The fold changes in gene expression in the cells treated with individual compounds or in combinations were calculated relative to the cells treated with an equal volume of RPMI 1640 or DMSO using the ΔΔCt method (31).

Another test relates to IL-1β. The test can be described thus: RT-qPCR of IL-1β in HTC cells with or without LPS. Type of test: cell-based, chicken. The method, then:
as §2, §3

Test [1] relates to AvBD4. Kind of test: RT-qPCR of AvBD4 in HTC cells. Type of test: cell-based, chicken. The following applies: 2 mM butyrate and at least one concentration of BIX01294, 24 h (FIG. 5). The method, then: (§4) Culture and stimulation of macrophages. Two different chicken macrophage cell lines, HTC (24) and HD11 (25), were kindly provided by Dr. Narayan C. Rath and Dr. Hyun Lillehoj of USDA-ARS and maintained in RPMI 1640 containing 10% heat-inactivated FBS, 100 U/ml penicillin, and 100 μg/ml streptomycin and subcultured every 3-4 days. After overnight seeding at 1.5×10^6 cells/well in 6-well cell culture plates, cells were treated with different concentrations of each compound for 24 h or with the indicated concentration of each compound for various lengths of time for dose-response and time-course experiments, respectively. […]
as §1, with “Total RNA was extracted using RNAzol (Molecular Biology Research Center, Cincinnati, OH) according to the manufacturer's protocol.” left out

For the next test, the system named is chicken HDP genes. Kind of test: RT-qPCR of multiple HDP genes in HTC cells. The class given is cell-based. As for the experimental part:
as §4
as §1, with “Total RNA was extracted using RNAzol (Molecular Biology Research Center, Cincinnati, OH) according to the manufacturer's protocol.” left out

The test system of the next test is AvBD10. Kind of test: RT-qPCR of AvBD10 in HTC cells. The following applies: 2 mM butyrate and at least one concentration of BIX01294, 24 h (FIG. 5). The class given is cell-based, chicken. As for the experimental part:
as §4
as §1, with “Total RNA was extracted using RNAzol (Molecular Biology Research Center, Cincinnati, OH) according to the manufacturer's protocol.” left out

For the next test, the system named is AvBD9 gene promoter. Kind of test: HTC/AvBD9-luc luciferase reporter assay. Type of test: cell-based, chicken. As for the experimental part: Culture and stimulation of a stable HTC/AvBD9-luc luciferase reporter cell line. A stable HTC/AvBD9-luc cell line was generated by cloning a 2.0-Kb AvBD9 gene promoter fragment into a lentiviral luciferase reporter vector, pGreenFire1-mCMV-Puro (System Biosciences, Palo Alto, CA) and then transfected into HTC cells as previously described (22). The stable cell line was maintained in RPMI 1640 containing 10% heat-inactivated FBS, 100 U/ml penicillin, 100 μg/mL streptomycin, and 0.5 μg/mL puromycin and subcultured every 3-4 days. To measure transcriptional activation of the AvBD9 gene promoter in response to different epigenetic compounds, cells were seeded at 4×10^4 cells/well in white 96-well tissue culture plates and stimulated in duplicate with different compounds individually or in combination for 24 h. An equal amount of a solvent was applied as a negative control. Luciferase activity was measured using STEADY-GLO® Luciferase Assay System (Promega, Madison, WI) on an L-Max II luminescence microplate reader (Molecular Devices, Sunnyvale, CA). Cell viabilities were assessed by adding alamarBlue Reagent (ThermoFisher, Waltham, MA) to cell culture 4 h before luciferase assay. Relative luciferase activity was determined for each well after normalization to the cell viability as previously described (22).

The next test has as its system AvBD14. The test can be described thus: RT-qPCR of AvBD14 in HTC cells. The following applies: 2 mM butyrate and at least one concentration of BIX01294, 24 h (FIG. 5). The class given is cell-based, chicken. As for the experimental part: as §4
as §1, with “Total RNA was extracted using RNAzol (Molecular Biology Research Center, Cincinnati, OH) according to the manufacturer's protocol.” left out

Another test relates to CLDN1. The test can be described thus: RT-qPCR of CLDN1 (claudin 1) in HTC cells. Type of test: cell-based, chicken. As for the experimental part: as §2, §3
Test [2] relates to AvBD4. The test can be described thus: RT-qPCR of AvBD4 in HD11 macrophages. The class given is cell-based, chicken. The following applies: HD11 cells, 5 μM compound with 2 mM butyrate, 24 h (FIG. 6, Panel C). As for the experimental part: as §4
as §1, with “Total RNA was extracted using RNAzol (Molecular Biology Research Center, Cincinnati, OH) according to the manufacturer's protocol.” left out

The subject of another test is AvBD8. Kind of test: RT-qPCR of AvBD8 in HTC cells. The following applies: 2 mM butyrate and at least one concentration of BIX01294, 24 h (FIG. 5). The class given is cell-based, chicken. As for the experimental part: as §4
as §1, with “Total RNA was extracted using RNAzol (Molecular Biology Research Center, Cincinnati, OH) according to the manufacturer's protocol.” left out

The next test concerns AvBD2. Kind of test: RT-qPCR of AvBD2 in HTC cells. The class given is cell-based, chicken. The following applies: BIX01294 with 2 mM butyrate, 24 h (FIG. 5). The method, then: as §4
as §1, with “Total RNA was extracted using RNAzol (Molecular Biology Research Center, Cincinnati, OH) according to the manufacturer's protocol.” left out

The test system of the next test is AvBD1. The test can be described thus: RT-qPCR of AvBD1 in HD11 macrophages. Type of test: cell-based, chicken. The following applies: HD11 cells, 5 μM compound with 2 mM butyrate, 24 h (FIG. 6, Panel B). The method, then: as §4
as §1, with “Total RNA was extracted using RNAzol (Molecular Biology Research Center, Cincinnati, OH) according to the manufacturer's protocol.” left out

Data on one compound can be found in patent US20250144056A1, “ANTIMICROBIAL HOST DEFENSE PEPTIDE-INDUCING COMPOSITIONS AND METHODS OF PRODUCTION AND USE THEREOF” (Board of Regents for the Oklahoma Agricultural and …, priority 2022, published 2025).

Take `COc1cc2nc(N3CCCN(C)CC3)nc(NC3CCN(Cc4ccccc4)CC3)c2cc1OC` [BIX01294]: in the test with AvBD9 (BIX01294 alone), the AvBD9 induction entry is listed as “induced AvBD9 in a dose-dependent manner”. In addition, the “synergy in AvBD9 induction with butyrate” value in the test with AvBD9 (BIX01294 with 1 mM butyrate) is recorded as “obvious synergy”. For the same compound, in the test on IL-8 (5 μM BIX01294 + 2 mM butyrate 24 h, then 10 ng/ml LPS 3 h (FIG. 8, Panel E)), the “LPS-induced IL-8 expression level, combination with butyrate” value is on record as “remained elevated”. Besides, the “IL-8 synthesis, combination with butyrate” value with IL-8 (5 μM BIX01294 + 2 mM butyrate, without LPS (FIG. 8, Panel E)) is listed as “tended to have a synergistic effect”. In the test with IL-8 (compound alone 24 h, then 10 ng/ml LPS 3 h (FIG. 8, Panel E)), the “effect on LPS-induced IL-8 expression” value is on record as “potentiated”. Also, the “activity in inducing gene expression of IL-8” value in the test with IL-8 (compound alone (2 mM butyrate or 5 μM BIX01294), without LPS (FIG. 8, Panel E)) is reported as “no or weak activity”. The “effect on LPS-induced IL-1B expression, combination with butyrate” value in the test with IL-1β (5 μM BIX01294 + 2 mM butyrate 24 h, then 10 ng/ml LPS 3 h (FIG. 8, Panel D)) is reported as “significant reduction”. Further, the “IL-1β synthesis, combination with butyrate” value in the test with IL-1β (5 μM BIX01294 + 2 mM butyrate, without LPS (FIG. 8, Panel D)) is reported as “tended to have a synergistic effect”. Moreover, the “effect on LPS-induced IL-1β expression” value in the test with IL-1β (compound alone 24 h, then 10 ng/ml LPS 3 h (FIG. 8, Panel D)) is on record as “opposite effect”. In addition, the “activity in inducing gene expression of IL-1β” value in the test on IL-1β (compound alone (2 mM butyrate or 5 μM BIX01294), without LPS (FIG. 8, Panel D)) is “no or weak activity”. Besides, the “AvBD4 induction, combination with butyrate” value is recorded as “greater than 100 fold” in the test with AvBD4 [1] and “synergistically induced, albeit at lower magnitudes” with AvBD4 [2]. The “induction of the HDP genes detectable in HTC cells, combination with butyrate” value with chicken HDP genes (BIX01294 with 2 mM butyrate, 24 h (FIG. 5)) was “all were synergistically induced”. Besides, in the test on chicken HDP genes (BIX01294 with any of the three HDACi (vorinostat, butyrate, mocetinostat), 24 h (FIG. 7, Panel B)), the “induction of most other HDP genes, combination with HDACi” value is on record as “synergistically induced”. The “AvBD10 induction, combination with butyrate” value in the test with AvBD10 is listed as “greater than 100 fold”. The “activation of the AvBD9 gene promoter (relative luciferase activity)” value with AvBD9 gene promoter (compound alone, different concentrations, 24 h (FIG. 2, Panel A)) is on record as “concentration-dependent activation”. In the test on AvBD9 gene promoter (different concentrations in combination with 2 mM butyrate, 24 h (FIG. 3)), the “synergy in luciferase activity with butyrate” value is given as “marked dose-dependent increase in the synergy”. Also, the “AvBD14 induction, combination with butyrate” value in the test on AvBD14 is on record as “greater than 100 fold”. Further, the “CLDN1 synergy with butyrate after subsequent LPS treatment” value in the test on CLDN1 (5 μM BIX01294 + 2 mM butyrate 24 h, then 10 ng/ml LPS 3 h (FIG. 8, Panel A)) was “further enhanced”. For the same compound, in the test on CLDN1 (5 μM BIX01294 + 2 mM butyrate, 24 h (FIG. 8, Panel A)), the “synergy in CLDN1 expression with butyrate” value is “marked synergy”. Further, the “activity in increasing CLDN1 expression” value with CLDN1 (5 μM BIX01294 alone, 24 h (FIG. 8, Panel A)) is given as “minimum activity”. Further, in the test on AvBD8, the “AvBD8 induction, combination with butyrate” value was “greater than 100 fold”. In addition, the “AvBD2 upregulation, combination with butyrate” value in the test with AvBD2 is given as 2- to 3 fold. Further, the “AvBD1 induction, combination with butyrate” value with AvBD1 is “synergistically induced, albeit at lower magnitudes”.
